For data set [1], the system named is Mycobacterium tuberculosis. The data set can be described thus: Antimycobacterial activity against Mycobacterium tuberculosis H37Rv ATCC 25618 assessed as reduction in viability at 5 uM incubated for 6 days by resazurin reduction microplate assay. The conditions noted are these: time 6 day. It is filed as functional. On the technique in general: Resazurin is reduced to fluorescent resorufin, in cell work by metabolically active cells.

For data set [2], the system named is Mycobacterium tuberculosis. Description: Antimycobacterial activity against GFP-expressing Mycobacterium tuberculosis H37Rv infected in PMA-treated THP-1 cells assessed as bacterial viability at 10 uM pre-infected for 3 hrs prior to gentamycin addition for 1 hr followed by washout and compound addition measured after 4 days by fluorescence microscopic analysis (reference value: 100%). The format is functional. The conditions noted are these: time 4 day.

Data set [3] has as its system Mycobacterium tuberculosis. The data set can be described thus: Antimycobacterial activity against GFP-expressing Mycobacterium tuberculosis H37Rv infected in PMA-treated THP-1 cells assessed as number of viable macrophages at 10 uM pre-infected for 3 hrs prior to gentamycin addition for 1 hr followed by washout and compound addition measured after 4 days by fluorescence microscopic analysis. Conditions: time 4.0 day. The format is functional.

The subject of data set [4] is THP-1. The data set can be described thus: Cytotoxicity against human THP-1 cells pretreated with PMA for 48 hrs followed by washout and compound addition for 5 days by resazurin sodium salt method. It is filed as toxicity, cell-based. Conditions: thp-1, 120 h, time 5 day.
Data set [5] concerns THP-1. Description: Cytotoxicity against replicating human THP-1 cells. The format is toxicity, cell-based.
A short description of data set [6]: Inhibition of Mycobacterium tuberculosis DNA gyrase B.
Data set [7] concerns Pseudomonas aeruginosa. Description: Antibacterial activity against Pseudomonas aeruginosa. The format is functional.
The test system of data set [8] is Acinetobacter baumannii. Description: Antibacterial activity against Acinetobacter baumannii. It is filed as functional.
Data set [9] concerns Mycolicibacterium smegmatis. The data set can be described thus: Antimycobacterial activity against Mycobacterium smegmatis MC2 incubated for 2 days by resazurin reduction microplate assay. It is filed as functional. Conditions: MC2, 48 h, time 2 day.
Data set [10] concerns Mycobacteroides abscessus. The data set can be described thus: Antimycobacterial activity against Mycobacterium abscessus RIVM incubated for 1 day by resazurin reduction microplate assay. The format is functional. The conditions noted are these: 24 h.
The subject of data set [11] is Mycobacterium tuberculosis. The data set can be described thus: Antimycobacterial activity against Mycobacterium tuberculosis H37Rv ATCC 25618 assessed as reduction in viability incubated for 6 days by resazurin reduction microplate assay. The conditions noted are these: H37Rv ATCC 25618, 144 h, time 6 day. The format is functional.
The test system of data set [12] is Escherichia coli. The data set can be described thus: Antibacterial activity against Escherichia coli ATCC 25922 incubated for 18 hrs by serial broth microdilution method. The format is functional. On the technique in general: Dilution methods test growth across graded concentrations, often in twofold steps.
The subject of the next data set is Staphylococcus aureus. The data set can be described thus: Antibacterial activity against Staphylococcus aureus ATCC 29213 incubated for 18 hrs by serial broth microdilution method. The format is functional.
In data set [13] the test system is THP-1. The data set can be described thus: Cytotoxicity against human THP-1 cells assessed as reduction in viability at 40 uM pretreated with PMA for 48 hrs followed by washout and compound addition for 5 days by resazurin sodium salt method. It is filed as toxicity, cell-based. The conditions noted are these: thp-1, 120 h, time 5 day.
For data set [14], the system named is THP-1. Description: Cytotoxicity against replicating human THP-1 cells upto 40 uM. It is filed as toxicity, cell-based. Conditions: thp-1, 40 µM.
Data set [15] deals with Mycobacterium tuberculosis. Description: Antimycobacterial activity against GFP-expressing Mycobacterium tuberculosis H37Rv infected in PMA-treated THP-1 cells assessed as bacterial viability pre-infected for 3 hrs prior to gentamycin addition for 1 hr followed by washout and compound addition measured after 4 days by fluorescence microscopic analysis. Conditions: dose 1-30 µM, time 4.0 day. It is filed as functional, organism-based.

Data set [16] relates to Mycobacterium tuberculosis. Description: Antimycobacterial activity against GFP-expressing Mycobacterium tuberculosis H37Rv infected in PMA-treated THP-1 cells assessed as increase in number of surviving macrophages at 1 to 30 uM pre-infected for 3 hrs prior to gentamycin addition for 1 hr followed by washout and compound addition measured after 4 days by fluorescence microscopic analysis. It is filed as functional, organism-based. Conditions: dose 1-30 µM, time 4.0 day.

Data set [17] relates to Escherichia coli. The data set can be described thus: Antibacterial activity against Escherichia coli ATCC 25922 harboring deltaTolC mutant incubated for 18 hrs by serial broth microdilution method. It is filed as functional.
Data set [18] has as its system Pseudomonas aeruginosa. Description: Antibacterial activity against Pseudomonas aeruginosa ATCC 27853 incubated for 18 hrs by serial broth microdilution method. It is filed as functional.
In data set [19] the test system is Acinetobacter baumannii. Description: Antibacterial activity against Acinetobacter baumannii ATCC17978 incubated for 18 hrs by serial broth microdilution method. The format is functional.
For the next data set, the system named is Klebsiella pneumoniae. The data set can be described thus: Antibacterial activity against Klebsiella pneumoniae ATCC10031 incubated for 18 hrs by serial broth microdilution method. It is filed as functional.
A further data set concerns Enterobacter cloacae. The data set can be described thus: Antibacterial activity against Enterobacter cloacae ATCC13047 incubated for 18 hrs by serial broth microdilution method. It is filed as functional.
In a further data set the test system is Segatella copri. Description: Antibacterial activity against Prevotella copri DSM 18205 measured at 15 mins interval for 24 hrs by broth microdilution method. It is filed as functional.
For data set [20], the system named is Bacteroides thetaiotaomicron. Description: Antibacterial activity against Bacteroides thetaiotaomicron DSM 2079 measured at 15 mins interval for 24 hrs by broth microdilution method. The format is functional.
For a further data set, the system named is Anaerostipes hadrus. The data set can be described thus: Antibacterial activity against Anaerostipes hadrus DSM 3319 measured at 15 mins interval for 24 hrs by broth microdilution method. It is filed as functional.
A short description of data set [21]: Acute toxicity in zebrafish embryo assessed as effect on embryo survival upto 5 mM measured for 4 days. Further details: species or system Danio rerio. The conditions noted are these: in vivo, 96 h, 5000 µM, time 4 day.
Data set [22] can be described thus: Acute toxicity in zebrafish embryo assessed as effect on embryo development upto 5 mM measured for 4 days. On the set-up: species or system Danio rerio. The conditions noted are these: in vivo, 96 h, 5000 µM, time 4 day.
The nature of data set [23]: Acute toxicity in zebrafish embryo assessed as change in behavior upto 5 mM measured for 4 days. On the set-up: species or system Danio rerio. Conditions: in vivo, 96 h, 5000 µM, time 4 day.
Data set [24] in a line: Kinetic solubility of compound in PBS at 100 uM incubated for 20 hrs in shaker by LC-MS/MS analysis. The format is physicochemical. Conditions: read-out: Kinetic_solubility.
Data set [25] is described as follows: Protein binding in human plasma assessed as free fraction at 10 uM incubated for 4 hrs by rapid equilibrium dialysis based LC-MS/MS method. It is filed as ADME, cell-free.
The nature of data set [26]: Protein binding in mouse plasma assessed as free fraction at 10 uM incubated for 4 hrs by rapid equilibrium dialysis based LC-MS/MS method. The format is ADME, cell-free. In general terms: In equilibrium dialysis free small molecules cross a membrane that holds back macromolecules.

What is called IC50 is the concentration needed to halve the response being measured. Read a high IC50 as weaker potency. The MIC is the lowest concentration that inhibits growth of the organism. A high value points to a need for much substance. Usually MIC90 stands for an inhibitory concentration at the 90% level, which refers to growth in some studies and to a panel of isolates in others. What is called fraction unbound is free concentration divided by total concentration.

Structures are written as SMILES. ≈ marks a conversion by molar mass, not a printed value. Calls of active or inactive are those of the source. The calls are words filed in the database; no cut-off is given here. Some results are limits rather than exact numbers.

Take `Cc1[nH]c(C(=O)Nc2nc3ccc(C(=O)O)cc3s2)c(Cl)c1Cl`: the Activity in data set [1] is reported as 57%; in data set [2] it was 14%; in the data set with THP-1 [4], “Non-Toxic”; with THP-1 [5], “Non-Toxic”. For the same compound, the outcome in [3] was inactive. Further, 24.5 nM corresponded to half-maximal inhibition in data set [6] (IC50). Besides, the minimal inhibitory concentration (MIC) stood at 8 µg/mL (≈ 21.6 µM) against Pseudomonas aeruginosa [7] and 4 µg/mL (≈ 10.8 µM) with Acinetobacter baumannii [8].

With `Cc1[nH]c(C(=O)Nc2nc3c(OC(C)CN(C)C)cc(C(=O)O)cc3s2)c(Cl)c1Cl` (stereo unspecified), the MIC90 is 0.63 µM (≈ 0.297 µg/mL) in data set [9]; 0.63 µM (≈ 0.297 µg/mL) in data set [10]; 2.5 µM (≈ 1.18 µg/mL) in data set [11]; over 135 µM against Escherichia coli [12]; over 135 µM against Staphylococcus aureus; 2 µM (≈ 0.943 µg/mL) against Escherichia coli [17]. Also, the MIC90 against Pseudomonas aeruginosa [18] was over 135 µM; against Acinetobacter baumannii [19], over 135 µM; against Klebsiella pneumoniae, 8 µM (≈ 3.77 µg/mL); with Enterobacter cloacae, over 135 µM. Also, the Activity with THP-1 [13] is 34%; in the data set on THP-1 [14], “Non-Toxic”; in [15], “Dose-Dependent Effect”; in [21] it was “Non-Toxic”; in data set [22] it was “Non-Toxic”; in data set [23], “Non-Toxic”. In addition, in [16], the result was inactive. Further, the MIC (with Segatella copri; in data set [20]; in the data set on Anaerostipes hadrus) was over 20 µM in each case. The solubility kinetic at 20 h, 100 µM in data set [24] is 55 µM (≈ 25.9 µg/mL). For the same compound, the figures for the fraction unbound at 4 h, 10 µM in data set [25] and in data set [26] were 0.029 and 0.047, respectively.

The record behind these values is ChEMBL document CHEMBL5608207, “Development of narrow-spectrum topoisomerase-targeting antibacterials against mycobacteria” (Eur J Med Chem, 2024).
